Data on six compounds can be found in article PMC6213879, “Synthesis and Biological Evaluation of Novel Dehydroabietic Acid-Oxazolidinone Hybrids for Antitumor Properties” (International Journal of Molecular Sciences, 2018).

Series [1] concerns MGC-803 human gastric cancer cell line. The series is described as follows: MTT cytotoxicity assay, MGC-803. In kind it is cell-based. The settings on record: Homo sapiens, MGC-803, 48 h, mean ± SD from three independent experiments. How it is done: (§1) The in vitro antiproliferative activity of the DHAA derivatives 3a–o and 4a–o against four human cancer cell lines (MGC-803 human gastric cancer cell line, CNE-2 human nasopharyngeal carcinoma cell line, SK-OV-3 human ovarian carcinoma cell line, NCI-H460 human lung cancer cell line) and the human normal liver cell line LO2 were evaluated by MTT (methyl thiazolytetrazolium) assay and compared with the parent compound DHAA and the positive control cisplatin in each panel.
(§2) The cytotoxicity of the compounds was evaluated against NCI-H460, MGC-803, SK-OV-3, CNE-2 and LO2 using an MTT assay. Cells were grown on 96-well micro-plates at a density of 4 × 10^3 cells per well in DMEM (dulbecco’s modified eagle medium) medium with 10% FBS (fetal bovine serum). The plates were incubated at 37 °C with 5% CO2. The cells were then exposed to different concentrations of target compounds and cisplatin and incubated for another 48 h. Control wells were formed by culture media with the maximum concentration of DMSO used in each assay (1‰). The cells were stained with 20 µL of MTT in an incubator for about 4 h. The medium was thrown away and replaced by […] DMSO. The absorbance (OD) value was read at 490 nm on an enzyme labeling instrument. Each experiment was repeated at least three times to obtain the mean values.

Series [2] has as its system CNE-2 human nasopharyngeal carcinoma cell line. Briefly: MTT cytotoxicity assay, CNE-2. It counts as cell-based. The settings on record: Homo sapiens, CNE-2, 48 h, mean ± SD from three independent experiments. How it is done:
as §1, §2
(Tetrazolium dyes change colour on reduction, which living cells bring about.)

Series [3] has as its system human normal liver cell line LO2. Briefly: MTT cytotoxicity assay, normal LO2 cells. It counts as cell-based. The settings on record: Homo sapiens, L02, 48 h, mean ± SD from three independent experiments. How it is done:
as §1, §2

In series [4] the test system is SK-OV-3 human ovarian carcinoma cell line. The series is described as follows: MTT cytotoxicity assay, SK-OV-3. In kind it is cell-based. The settings on record: Homo sapiens, SK-OV-3, 48 h, mean ± SD from three independent experiments. How it is done: as §1, §2
Series [5] deals with NCI-H460 human lung cancer cell line. The series is described as follows: MTT cytotoxicity assay, NCI-H460. In kind it is cell-based. The settings on record: Homo sapiens, NCI-H460, 48 h, mean ± SD from three independent experiments. How it is done:
as §1, §2

In series [6] the test system is MGC-803 cells. Briefly: Apoptosis analysis, Annexin-V/FITC and PI, flow cytometry. It counts as cell-based, human. The settings on record: 48 h, control 9.3%. How it is done: In order to further confirm whether the 4j-induced reduction in cell viability was responsible for the induction of apoptosis, MGC-803 cells were investigated using the PI and Annexin-V/FITC (fluorescein isothiocyanate) and the number of apoptotic cells was estimated by flow cytometry, after the treatment of the MGC-803 cells at concentrations of 5 and 10 µM for 48 h. The results are illustrated in Figure 2.
MGC-803 cells were seeded at a concentration of 2 × 10^6 cells/mL of the DMEM medium with 10% FBS on 6-well plates to the final volume of 2 mL, and then treated with compound 4j at different concentrations for 48 h. After 48 h, the cells were collected and washed twice with PBS and then resuspended in 100 µL 1 × binding buffer, The cells were subjected to 5 µL of FITC Annexin V and 5 µL propidium iodide (PI) staining using an annexin-V FITC apoptosis kit (BD, Pharmingen) and incubated for 30 min at RT (25 °C) in the dark. Then, 100µL 1× binding buffer were added. The apoptosis ratio was quantified by system software (Cell Quest; BD Biosciences, Becton Dickinson FACSAriaIII, NY, USA).

For series [7], the system named is MGC-803, CNE-2, SK-OV-3, NCI-H460. The series is described as follows: MTT cytotoxicity assay, summary over the four cancer cell lines. In kind it is cell-based. The settings on record: Homo sapiens; range over MGC-803, CNE-2, SK-OV-3, NCI-H460; read-out: IC50 values ranging against all the test cell lines. How it is done:
as §1, §2

The subject of series [8] is MGC-803 cells. Briefly: Hoechst 33258 staining assay. It counts as cell-based, human. The settings on record: 48 h. How it is done: Hoechst 33258 is a dye that is utilized to identify the transitions of a cell’s nuclear morphology. To determine the morphological changes induced by compound 4j in MGC-803 cells, Hoechst 33258 staining was carried out. MGC-803 cells were treated with various concentrations (0, 1.0, 5.0, 10 µM) of compound 4j for 48 h, and stained with Hoechst 33258.
Cells grown on a sterile cover slip in six-well plates were treated with different concentrations of the test compound for 48 h. The culture medium containing compounds was removed, and the cells were fixed in 4% paraformaldehyde for 10 min. After being washed twice with PBS, the cells were stained with 0.5 mL of Hoechst 33258 (Beyotime, Shanghai, China) for 5 min, and then again washed twice with PBS. The stained nuclei were observed under an OLYMPUS 1X73 fluorescence microscope using 350 nm for excitation and 460 nm for emission.

Series [9] relates to MGC-803 cells. Briefly: Cell cycle analysis by PI staining and flow cytometry. It counts as cell-based, human. The settings on record: MGC-803, 48 h. How it is done:
To determine the possible role of cell cycle arrest in 4j-induced growth inhibition, MGC-803 cells were treated with different concentrations of compound 4j for 48 h. The cell cycle distribution was investigated by flow cytometric analysis following the staining of DNA with propidium iodide (PI).
The MGC-803 cell line was treated with different concentrations of compound 4j. After 48 h of incubation, cells were washed twice with ice-cold PBS, fixed and permeabilized with ice-cold 70% ethanol at −20 °C overnight. The cells were treated with 100 µg /mL RNase A at 37 °C for 30 min, after being washed with ice-cold PBS, and finally stained with 1 mg/mL propidium iodide (PI) (BD, Pharmingen) in the dark at 4 °C for 30 min. Analysis was performed with the system software (Cell Quest; BD Biosciences, Becton Dickinson FACSAriaIII, NY, USA).

As a reminder, the IC50 is the concentration at which inhibition is half-maximal. Broadly, the melting point is the temperature of the solid-liquid transition.

On to `CC(C)c1ccc2c(c1)CCC1[C@](C)(C(=O)OCC3CN(c4ccc(Cl)cc4)C(=O)O3)CCC[C@]21C` (stereo partly drawn) [Compound 4l, (1R,4aS)-(3-(4-Chlorophenyl)-2-Oxooxazolidin-5-yl)Methyl-7-Isopropyl-1,4a-Dimethyl-1,2,3,4,4a,9,10,10a-Octahydrophenanthrene-1-Carboxylate], for which the melting point lay within 170.6 to 172.5 °C. In series [1], this compound came in with an IC50 of 5.82 ± 4.82 µM. In series [2], the IC50 came out at 27.6 ± 1.5 µM. Also, in series [3], half-maximal inhibition (IC50) required 44.5 ± 2.77 µM. Besides, the half-maximal inhibitory concentration (IC50) in series [4] was determined as 15.7 ± 2.32 µM. The same compound registered an IC50 in series [5] of 26.55 ± 0.08 µM.
In turn, `C#Cc1cccc(N2CC(COC(=O)[C@]3(C)CCC[C@]4(C)c5ccc(C(C)C)cc5CCC34)OC2=O)c1` (stereo partly drawn) [Compound 4o, (1R,4aS)-(3-(3-Ehynylphenyl)-2-Oxooxazolidin-5-yl)Methyl-7-Isopropyl-1,4a-Dimethyl-1,2,3,4,4a,9,10,10a-Octahydrophenanthrene-1-Carboxylate] showed a melting point of 125.2 to 130.4 °C. The compound further returned an IC50 in series [1] of 18.2 ± 2.36 µM. This compound returned an IC50 in series [2] of 51.4 ± 5.06 µM. For the same compound, the IC50 in [3] was above 100 µM. Besides, in series [4], the IC50 was 23.7 ± 2.02 µM. It took 72.4 ± 1.07 µM to reach half-maximal inhibition in series [5] (IC50).
On to `CC(C)c1ccc2c(c1)CCC1[C@](C)(C(=O)OCC3CN(c4ccc(F)cc4)C(=O)O3)CCC[C@]21C` (stereo partly drawn) [Compound 4j, (1R,4aS)-(3-(4-Fluorophenyl)-2-Oxooxazolidin-5-yl)Methyl-7-Isopropyl-1,4a-Dimethyl-1,2,3,4,4a,9,10,10a-Octahydrophenanthrene-1-Carboxylate], for which the melting point was 112.8 to 117.5 °C. For the same compound, in [1], the IC50 worked out at 3.82 ± 0.18 µM. Moreover, in the series on MGC-803 cells [6] (5 µM), the “percentage of all apoptotic cells (early and late)” value is on record as 28.5%. Besides, the “percentage of all apoptotic cells (early and late)” value in the series on MGC-803 cells [6] (10 µM) is reported as 34.3%. Besides, the 50% inhibitory concentration (IC50) in [7] fell in the range of 3.82 to 17.8 µM. For the same compound, half-maximal inhibition in [2] (IC50) required 17.8 ± 4.69 µM. Also, in [3], the IC50 is above 100 µM. Besides, it took 4.66 ± 2.13 µM to reach half-maximal inhibition in series [4] (IC50). The same compound came in with an IC50 in series [5] of 8.44 ± 0.36 µM. Further, in the series on MGC-803 cells [8] (10.0 µM), the “nuclear morphological changes (Hoechst 33258)” value was “number of apoptotic nuclei significantly increased”. Further, in the series with MGC-803 cells [8] (1.0 and 5.0 µM), the “nuclear morphological changes (Hoechst 33258)” value is on record as “some exhibited bright-blue fluorescence due to chromatin condensation”. For the same compound, in the series with MGC-803 cells [9], the cell cycle arrest entry is reported as “mainly arrested the MGC-803 cells in the G1 phase”.
On to `Cc1cccc(NCC(O)COC(=O)[C@]2(C)CCC[C@]3(C)c4ccc(C(C)C)cc4CCC23)c1` (stereo partly drawn) [Compound 3c, (1R,4aS)-2-Hydroxy-3-(3-Methylphenylamino)Propyl-7-Isopropyl-1,4a-Dimethyl-1,2,3,4,4a,9,10, 10a-Octahydrophenanthrene-1-Carboxylate], for which the IC50 in series [1] came to 12.3 ± 4.87 µM; in series [2], 14.6 ± 0.19 µM; in [3], 34.7 ± 0.45 µM; in [4], 14.8 ± 4.03 µM; in series [5] it was 20.1 ± 2.95 µM.
In the case of `CC(C)c1ccc2c(c1)CCC1[C@](C)(C(=O)OCC(O)CNc3ccc(Br)cc3)CCC[C@]21C` (stereo partly drawn) [Compound 3n, (1R,4aS)-2-Hydroxy-3-(4-Bromophenylamino)Propyl-7-Isopropyl-1,4a-Dimethyl-1,2,3,4,4a,9,10, 10a-Octahydrophenanthrene-1-Carboxylate], the IC50 in series [1] is 9.91 ± 7 µM; in series [2] it was 17.9 ± 4.47 µM; in [3], above 100 µM; in series [4], 19 ± 2.11 µM; in series [5] it was 19.1 ± 5.23 µM.
Taken in the same sequence, the figures for `CC(C)c1ccc2c(c1)CCC1[C@](C)(C(=O)OCC(O)CNc3ccc(Cl)cc3)CCC[C@]21C` (stereo partly drawn) [Compound 3l, (1R,4aS)-2-Hydroxy-3-(4-Chlorophenylamino)Propyl-7-Isopropyl-1,4a-Dimethyl-1,2,3,4,4a,9,10, 10a-Octahydrophenanthrene-1-Carboxylate] were 34.48 ± 0.02 µM, above 100 µM, above 100 µM, above 100 µM and above 100 µM.
